Among the data in patent US12582722B2, “Bifunctional compounds for degrading BTK via ubiquitin proteosome pathway” (NURIX THERAPEUTICS, INC., priority 2019, dated 2026) are DC50 values, retold here.

This assay addresses T1, BTK (Homo sapiens, UniProt Q06187).
T1 construct: endogenous in cells; host or cells: Ramos (ATCC CRL-1596)
Briefly: Cellular BTK HTRF Assay (BTK degradation in Ramos cells). It counts as cell-based. Conditions: four hours incubation, 37° C., BTK levels relative to DMSO-treated cells. Here is the method:
Ramos (CRL-1596) cells were obtained from American Type Culture Collection and were grown in RPMI-1640 media (ATCC, 30-2001) supplemented with 10% heat-inactivated FBS (Corning Premium Fetal Bovine Serum from Fisher, MT35015CV).
Compounds of the present invention were added to 50,000 Ramos cells in round-bottom 96 well plates with a final DMSO concentration of […] and were incubated at 37° C., 5% CO2 for four hours. BTK levels were determined using Cisbio Total-BTK HTRF ([…] Time-Resolved Fluorescence) kit (63ADK064PEG) according to manufacturer's protocol. Briefly, cells were incubated in 1× supplied lysis buffer for 30 minutes. In an opaque white low volume 96 well plate (Cisbio, 66PL96005), cell lysate was combined with two different specific BTK antibodies, one conjugated with Eu^3+-Cryptate FRET donor and one conjugated with d2 FRET acceptor. Assay controls include wells containing cell lysate with only the Eu^3+-Cryptate FRET donor antibody and wells containing both HTRF antibodies and lysis buffer without cells or control lysate provided by Cisbio. HTRF ratio was calculated as (acceptor signal at 665 nm/donor signal at 620 nm)×10^4. Background HTRF levels were determined from the control well containing the donor, but no acceptor, antibody. Background HTRF levels were subtracted from all samples. Readouts were reported as HTRF levels relative to HTRF levels of DMSO-treated cells. Four-parameter non-linear regressions were performed in GraphPad Prism 7.02 to obtain DC50 values. DC50 values are provided in Table 3, wherein A<7.5 nM, 7.5 nM≤B≤50 nM, and 50 nM<C<500 nM.
Background: Time-resolved FRET reads energy transfer from a long-lived donor to a nearby acceptor.

T1 sequence (Q06187 whole entry): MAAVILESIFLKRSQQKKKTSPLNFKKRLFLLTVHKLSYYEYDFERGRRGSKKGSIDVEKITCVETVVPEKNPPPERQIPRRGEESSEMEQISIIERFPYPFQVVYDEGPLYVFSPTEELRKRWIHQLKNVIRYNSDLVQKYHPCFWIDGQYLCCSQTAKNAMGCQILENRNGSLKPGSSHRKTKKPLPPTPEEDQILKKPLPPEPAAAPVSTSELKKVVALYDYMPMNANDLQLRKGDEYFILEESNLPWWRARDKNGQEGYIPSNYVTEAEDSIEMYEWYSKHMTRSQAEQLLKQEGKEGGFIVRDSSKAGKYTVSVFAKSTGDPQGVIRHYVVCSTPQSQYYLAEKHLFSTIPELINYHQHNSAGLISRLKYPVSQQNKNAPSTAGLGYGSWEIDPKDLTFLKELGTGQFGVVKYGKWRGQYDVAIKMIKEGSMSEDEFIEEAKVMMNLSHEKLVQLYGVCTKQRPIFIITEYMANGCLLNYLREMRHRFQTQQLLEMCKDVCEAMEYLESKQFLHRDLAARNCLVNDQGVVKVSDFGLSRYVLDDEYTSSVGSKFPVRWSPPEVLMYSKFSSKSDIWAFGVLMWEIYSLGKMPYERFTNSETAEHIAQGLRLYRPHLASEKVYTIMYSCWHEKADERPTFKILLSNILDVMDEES

A word on the DC50: it is the midpoint of the concentration-degradation curve. The low end stands for a more potent degrader, the high end for a less potent degrader. Turning to `Cc1cc(Nc2nc(N3CCC[C@@H](NC(=O)C4CCN(CC5CCN(c6ccc7c(c6)C(=O)N(C6CCC(=O)NC6=O)C7=O)CC5)C4)C3)cnc2C(N)=O)sn1` (stereo partly drawn) [Compound 15, 5-[(3R)-3-[1-({1-[2-(2,6-dioxopiperidin-3-yl)-1,3-dioxoisoindol-5-yl]piperidin-4-yl}methyl)pyrrolidine-3-amido]piperidin-1-yl]-3-[(3-methyl-1,2-thiazol-5-yl)amino]pyrazine-2-carboxamide], the DC50 is under 7.5 nM.
`Cc1cc(Nc2nc(N3CCC[C@@H](NC(=O)OCCC4CCN(c5ccc6c(c5)C(=O)N(C5CCC(=O)NC5=O)C6=O)CC4)C3)cnc2C(N)=O)sn1` (stereo partly drawn) [Compound 7, 2-(1-(2-(2,6-dioxopiperidin-3-yl)-1,3-dioxoisoindolin-5-yl)piperidin-4-yl)ethyl ((R)-1-(5-carbamoyl-6-((3-methylisothiazol-5-yl)amino)pyrazin-2-yl)piperidin-3-yl)carbamate] displayed a DC50 of 50 to 500 nM.
In turn, `CS(=O)(=O)c1ccc(Nc2nc(N3CCC[C@@H](NC(=O)C4CN(CC5CCN(c6ccc7c(c6)C(=O)N(C6CCC(=O)NC6=O)C7=O)CC5)C4)C3)cnc2C(N)=O)cc1` (stereo partly drawn) [Compound 30, 5-((3R)-3-(1-((1-(2-(2,6-dioxopiperidin-3-yl)-1,3-dioxoisoindolin-5-yl)piperidin-4-yl)methyl)azetidine-3-carboxamido)piperidin-1-yl)-3-((4-(methylsulfonyl)phenyl)amino)pyrazine-2-carboxamide] yielded a DC50 of 7.5 to 50 nM.
Under `CS(=O)(=O)c1ccc(Nc2nc(N3CCC[C@@H](NC(=O)OC[C@@H]4CCN(c5ccc6c(c5)C(=O)N(C5CCC(=O)NC5=O)C6=O)C4)C3)cnc2C(N)=O)cc1` (stereo partly drawn) [Compound 9, ((3R)-1-(2-(2,6-dioxopiperidin-3-yl)-1,3-dioxoisoindolin-5-yl)pyrrolidin-3-yl)methyl ((R)-1-(5-carbamoyl-6-((4-(methylsulfonyl)phenyl)amino)pyrazin-2-yl)piperidin-3-yl)carbamate] stands 50 to 500 nM; under `CS(=O)(=O)c1ccc(Nc2nc(N3CCC[C@@H](NC(=O)N4CC5(CN(Cc6ccc7c(c6)C(=O)N(C6CCC(=O)NC6=O)C7=O)C5)C4)C3)cnc2C(N)=O)cc1` (stereo partly drawn) [Compound 25, N-[(3R)-1-{5-carbamoyl-6-[(4-methanesulfonylphenyl)amino]pyrazin-2-yl}piperidin-3-yl]-6-{[2-(2,6-dioxopiperidin-3-yl)-1,3-dioxoisoindol-5-yl]methyl}-2,6-diazaspiro[3.3]heptane-2-carboxamide], 7.5 to 50 nM; under `CS(=O)(=O)c1ccc(Nc2nc(N3CCC[C@@H](NC(=O)OCC4CCN(c5ccc6c(c5)C(=O)N(C5CCC(=O)NC5=O)C6=O)CC4)C3)cnc2C(N)=O)cc1` (stereo partly drawn) [Compound 8, (1-(2-(2,6-dioxopiperidin-3-yl)-1,3-dioxoisoindolin-5-yl)piperidin-4-yl)methyl ((R)-1-(5-carbamoyl-6-((4-(methylsulfonyl)phenyl)amino)pyrazin-2-yl)piperidin-3-yl)carbamate], 7.5 to 50 nM.
As to `Cc1cc(Nc2nc(N3CCC[C@@H](NC(=O)C4CCN(C5CCN(c6ccc7c(c6)C(=O)N(C6CCC(=O)NC6=O)C7=O)CC5)CC4)C3)cnc2C(N)=O)sn1` (stereo partly drawn) [Compound 39, N—((R)-1-(5-carbamoyl-6-((3-methylisothiazol-5-yl)amino)pyrazin-2-yl)piperidin-3-yl)-1′-(2-(2,6-dioxopiperidin-3-yl)-1,3-dioxoisoindolin-5-yl)-[1,4′-bipiperidine]-4-carboxamide], the DC50 was under 7.5 nM.
With `Cn1cc(Nc2nc(N3CCC[C@@H](N4CC5(CN(CC6CCN(c7ccc8c(c7)C(=O)N(C7CCC(=O)NC7=O)C8=O)CC6)C5)OC4=O)C3)cnc2C(N)=O)cn1` (stereo partly drawn) [Compound 43, 5-[(3R)-3-[2-({1-[2-(2,6-dioxopiperidin-3-yl)-1,3-dioxoisoindol-5-yl]piperidin-4-yl}methyl)-6-oxo-5-oxa-2,7-diazaspiro[3.4]octan-7-yl]piperidin-1-yl]-3-[(1-methylpyrazol-4-yl)amino]pyrazine-2-carboxamide] the figure was under 7.5 nM; with `Cn1cc(Nc2nc(N3CCC[C@@H](N4CCC5(CCN(CC6CN(c7ccc8c(c7)C(=O)N(C7CCC(=O)NC7=O)C8=O)C6)CC5)C4=O)C3)cnc2C(N)=O)cn1` (stereo partly drawn) [Compound 50, 5-[(3R)-3-[8-({1-[2-(2,6-dioxopiperidin-3-yl)-1,3-dioxoisoindol-5-yl]azetidin-3-yl}methyl)-1-oxo-2,8-diazaspiro[4.5]decan-2-yl]piperidin-1-yl]-3-[(1-methylpyrazol-4-yl)amino]pyrazine-2-carboxamide], under 7.5 nM; with `Cn1cc(Nc2nc(N3CCC[C@@H](N4CCC5(CCN(C6CCN(c7ccc8c(c7)C(=O)N(C7CCC(=O)NC7=O)C8=O)CC6)CC5)C4=O)C3)cnc2C(N)=O)cn1` (stereo partly drawn) [Compound 49, 5-[(3R)-3-(8-{1-[2-(2,6-dioxopiperidin-3-yl)-1,3-dioxoisoindol-5-yl]piperidin-4-yl}-1-oxo-2,8-diazaspiro[4.5]decan-2-yl)piperidin-1-yl]-3-[(1-methylpyrazol-4-yl)amino]pyrazine-2-carboxamide], under 7.5 nM.
With `CS(=O)(=O)c1ccc(Nc2nc(N3CCC[C@@H](NC(=O)C4CC5CCC(C4)N5CC4CCN(c5ccc6c(c5)C(=O)N(C5CCC(=O)NC5=O)C6=O)CC4)C3)cnc2C(N)=O)cc1` (stereo partly drawn) [Compound 34, (1R,3s,5S)—N—((R)-1-(5-carbamoyl-6-((4-(methylsulfonyl)phenyl)amino)pyrazin-2-yl)piperidin-3-yl)-8-((1-(2-(2,6-dioxopiperidin-3-yl)-1,3-dioxoisoindolin-5-yl)piperidin-4-yl)methyl)-8-azabicyclo[3.2.1]octane-3-carboxamide] the figure was 7.5 to 50 nM; with `CS(=O)(=O)c1ccc(Nc2nc(N3CCC[C@@H](NC(=O)N4CCC5(CCN(c6ccc7c(c6)C(=O)N(C6CCC(=O)NC6=O)C7=O)CC5)C4)C3)cnc2C(N)=O)cc1` (stereo partly drawn) [Compound 10, N—((R)-1-(5-carbamoyl-6-((4-(methylsulfonyl)phenyl)amino)pyrazine-2-yl)piperidin-3-yl)-8-(2-(2,6-dioxopiperidin-3-yl)-1,3-dioxoisoindolin-5-yl)-2,8-diazaspiro[4.5]decane-2-carboxamide], 7.5 to 50 nM; with `CS(=O)(=O)c1ccc(Nc2nc(N3CCC[C@@H](NC(=O)N4CCC5(CC4)CN(Cc4ccc6c(c4)C(=O)N(C4CCC(=O)NC4=O)C6=O)C5)C3)cnc2C(N)=O)cc1` (stereo partly drawn) [Compound 29, N-[(3R)-1-{5-carbamoyl-6-[(4-methanesulfonylphenyl)amino]pyrazin-2-yl}piperidin-3-yl]-2-{[2-(2,6-dioxopiperidin-3-yl)-1,3-dioxoisoindol-5-yl]methyl}-2,7-diazaspiro[3.5]nonane-7-carboxamide], under 7.5 nM.
With `CS(=O)(=O)c1ccc(Nc2nc(N3CCC[C@@H](NC(=O)OCCCCCCCOc4ccc5c(c4)C(=O)N(C4CCC(=O)NC4=O)C5=O)C3)cnc2C(N)=O)cc1` (stereo partly drawn) [Compound 3, 7-((2-(2,6-dioxopiperidin-3-yl)-1,3-dioxoisoindolin-5-yl)oxy)heptyl ((R)-1-(5-carbamoyl-6-((4-(methylsulfonyl)phenyl)amino)pyrazin-2-yl)piperidin-3-yl)carbamate], the DC50 lay within 7.5 to 50 nM.
